According to ChEMBL document CHEMBL1130859, “Inhibitors of the bacterial cell wall biosynthesis enzyme MurD” (Bioorg Med Chem Lett, 1998):

Experiment: Compound was tested for inhibition against UDP-N-acetylmuramoyl-L-alanyl-D-glutamate synthetase
Parameters: species or system Escherichia coli

IC50 [nM]	Compound
782000	CC(=O)NC1C(O)OC(CO)C(O)C1O[C@H](C)C(=O)N[C@@H](C)P(=O)(O)CC(CCC(=O)O)C(=O)O (some centres not stated)
455	CC(=O)NC1C(OP(=O)(O)O)OC2COC(c3ccccc3)OC2C1O[C@H](C)C(=O)N[C@@H](C)P(=O)(O)CC(CCC(=O)O)C(=O)O (some centres not stated)
29000	CC(NC(=O)CCCCCOP(=O)(O)O)P(=O)(O)CC(CCC(=O)O)C(=O)O (configuration not stated)
680	CC(NC(=O)CCCCCOP(=O)(O)OP(=O)(O)OC[C@H]1O[C@@H](n2ccc(=O)[nH]c2=O)[C@H](O)[C@@H]1O)P(=O)(O)CC(CCC(=O)O)C(=O)O (some centres not stated)
20	CC(=O)NC1C(OP(=O)(O)O)OC(CO)C(O)C1O[C@H](C)C(=O)N[C@@H](C)P(=O)(O)CC(CCC(=O)O)C(=O)O (some centres not stated)
< 1	CC(=O)NC1C(OP(=O)(O)OP(=O)(O)OC[C@H]2OC(n3ccc(=O)[nH]c3=O)[C@H](O)[C@@H]2O)OC(CO)C(O)C1O[C@H](C)C(=O)N[C@@H](C)P(=O)(O)CC(CCC(=O)O)C(=O)O (some centres not stated)

Experiment: Compound was tested for inhibition against UDP-N-acetylmuramoyl-L-alanyl-D-glutamate synthetase isolated from Escherichia coli

IC50 [nM]	Compound
4	CC(=O)NC1C(OP(=O)(O)OP(=O)(O)OC[C@H]2OC(n3cc(I)c(=O)[nH]c3=O)[C@H](O)[C@@H]2O)OC(CO)C(O)C1O[C@H](C)C(=O)N[C@@H](C)P(=O)(O)CC(CCC(=O)O)C(=O)O (some centres not stated) [17]
